Converted amounts (≈) assume the structure as drawn.
Assays:
M. haemolytica = test: MIC, M. haemolytica strains; type: cell-based; settings: Mannheimia haemolytica
Source text: (§1) Primary screening of the compounds of the invention included the evaluation of antibacterial activity of analogs through determination of microbial inhibition concentration (MIC) as per CLSI guidelines. The screening panel included the relevant BRD pathogens: 1) M. haemolytica (e.g., 12726, 46571 and 49023, all AHDRCC; and 33396 (ATCC)); and 2) P. multocida (e.g., 34135 and 46572 (both AHDRCC) and 43137 (ATCC)). In some instances, H. somni (A700025K) pathogens were also included in the screening panel. The AHDRCC strains originated from the Zoetis BRD/SRD surveillance program and refer to the Animal Health Development and Research Culture Collection. In addition, the screen assessed S. aureus (29213 ATCC) as a representative Gram-positive isolate, E.faecalis (19433 ATCC) as a commensal gram-positive gastrointestinal bacterium and E. coli (100, 3110 and 25922 (ATCC)) for the evaluation of efflux potential. The screening panel BRD pathogens were assessed in determining antibacterial activity of the Formula (1) compounds.
(§2) All relevant BRD pathogens were initially screened at a top concentration of 64 μg/mL of a Formula (1) compound in an eleven-point dilution series. […] If an Example was purified further, the MICs moved […] essentially two dilutions across all strains tested in the screening panel.
(§3) In-Vitro MIC Model Compounds were analyzed for antibacterial activity against a panel of animal health specific gram-positive and gram-negative clinical strains by diluting compounds in DMSO to an appropriate stock concentration to determine the Minimal Inhibitory Concentration (MIC) via a semi-automated broth micro-dilution method (CLSI reference method) with QC strains and anti-microbial agent(s). Specifically, bacteria were grown overnight on TSA w/5% sheep blood agar plates and diluted in saline buffer to a McFarland Standard 0.5, then further diluted in cation-ion adjusted Mueller Hinton Broth to a final concentration of approximately 5×10^5 CFU/mL. 100 μL of inoculated media was added to 96-well plate(s) with 3 μL of serially diluted compound in each row. Depending on strain (see CLSI reference method), bacteria were incubated 18-22 hours at 35-37° C. in ambient air, with 5% CO2 or anaerobically (up to 48 hours).

E. coli = test: MIC, E. coli; type: cell-based; settings: Escherichia coli
Source text: as §1, §2, §3

P. multocida 46572 = test: In vivo mouse lung infection challenge model (murine efficacy), survival; parameters: species or system CD-1 female mice; settings: 20 mg/kg subcutaneous; for % Survival: P. multocida 46572 intranasal challenge, harmonized relative to vehicle (−) and M9 (+) controls
Description: The challenge organism was P. multocida 46572. Target challenge concentration was 5×10^2 CFU/mouse. Isolated colonies from overnight growth (37° C. with 5% CO2) on trypticase soy agar (TSA II) blood plates were transferred to room temperature Brain Heart Infusion Broth (BHIB). The broth culture was incubated 3.5-4 hours to approximately mid-log phase of growth, as measured by forward light scatter at 600 nm (OD600, 0.200). The culture was centrifuged to collect the bacterial pellet. The pellet was re-suspended in BHIB and adjusted to provide an approximate concentration of 2.7 log 10 colony forming units (CFU) in 0.04 mL at the highest concentration. The challenge inoculum concentration was confirmed by serial dilutions of the inoculum for CFU enumeration. On Day −5, CD −1 female mice were received. Mice were given standard rodent diet and water ad libitum. On Day 0, bacterial inoculum (0.04 mL) was administered to each mouse (n=36) intranasally. Compounds of the invention were dosed at 20 mg/kg (0.1 mL) in a buffered (˜pH 5.4) propylene glycol, monothioglycerol and water solution by subcutaneous injection. Animals were observed from Days 1-10. The study was terminated on Day 10. In addition, some treatment groups were sampled at 6, 24, and 48 hours post bacterial challenge for RNA sequence analysis of lung tissue.
The murine efficacy model (P.multocida challenge) was optimized, and the treatment group size was powered to be able to observe statistically significant improvement of survival to expected ranges for immunomodulatory compounds. The experimental design was a randomized complete block design. Mice were individually identified and treatment groups comingled within a cage, with every treatment group equally represented across cages. Mortality was the primary variable. Mortality data was analyzed using a generalized mixed model with fixed effect of treatment and random effect of block. Survival time was also analyzed using the SAS PHREG (survival analysis) procedure to examine whether there were significant differences between treatment groups and the control group. Numerous compounds of the invention and M9 (positive control) were tested in this model at a dose of 20 mg/kg (Table 3). Typical percent survival for no treatment control is in the range of 0-20% based on study to study variation in challenge inoculum and rate of infection. […] Mouse survival for M9 was about 90-100%, further supporting its residual antibacterial properties against the bacterial strain.

[1] = M. haemolytica 46571, bovine efficacy challenge strain

Compound | MIC (M. haemolytica; M. haemolytica 12726) [µg/mL] | MIC (M. haemolytica; M. haemolytica 33396) [µg/mL] | MIC (M. haemolytica; [1]) [µg/mL] | MIC (E. coli; E. coli 25922) [µg/mL] | MIC (E. coli; E. coli W3110) [µg/mL] | % Survival (P. multocida 46572) [%] | Mouse survival (P. multocida 46572; M9 positive control)
CC[C@H]1OC(=O)[C@H](C)[C@@H](O[C@H]2C[C@@](C)(OC)[C@](O)(CN3CCCCC3)[C@H](C)O2)[C@H](C)[C@@H](O[C@@H]2O[C@H](C)C[C@H](N(C)S(=O)(=O)Nc3ccc(C(F)(F)F)cc3)[C@H]2O)[C@](C)(O)C[C@@H](C)CN[C@H](C)[C@@H](O)[C@]1(C)O [Example C-11, (2R,3S,4R,5R,8R,10R,11R,12S, 13S, 14R)-2-ethyl-3,4, 10-trihydroxy-13-[(2R,4R,5S,6S)-5-hydroxy-4-methoxy-4,6-dimethyl-5-(piperidin-1-ylmethyl)oxan-2-yl]oxy-11-[(2S,3R,4S,6R)-3-hydroxy-6-methyl-4-[methyl-[[4-(trifluoromethyl)phenyl]sulfamoyl]amino]oxan-2-yl]oxy-3,5,8, 10, 12, 14-hexamethyl-15-oxo-1-oxa-6-azacyclopentadecane] | > 64 | > 64 | > 64 | > 64 | > 64 | 56 | –
CCCNC[C@]1(O)[C@H](C)O[C@@H](O[C@H]2[C@H](C)[C@@H](O[C@@H]3O[C@H](C)C[C@H](N(C)S(=O)(=O)c4ccc(C)cc4)[C@H]3O)[C@](C)(O)C[C@@H](C)CN[C@H](C)[C@@H](O)[C@](C)(O)[C@@H](CC)OC(=O)[C@@H]2C)C[C@@]1(C)OC [Example B-26, N-((2S,3R,4S,6R)-2-(((2R,3S,4R,5R,8R,10R,11R,12S,13S,14R)-2-ethyl-3,4,10-trihydroxy-13-(((2R,4R,5S,6S)-5-hydroxy-4-methoxy-4,6-dimethyl-5-((propylamino)methyl)tetrahydro-2H-pyran-2-yl)oxy)-3,5,8,10,12,14-hexamethyl-15-oxo-1-oxa-6-azacyclopentadecan-11-yl)oxy)-3-hydroxy-6-methyltetrahydro-2H-pyran-4-yl)-N,4-dimethylbenzenesulfonamide] | > 64 | > 64 | > 64 | > 64 | > 64 | 37 | –
CCCNC[C@]1(O)[C@H](C)O[C@@H](O[C@H]2[C@H](C)[C@@H](O[C@@H]3O[C@H](C)C[C@H](N(C)S(=O)(=O)Nc4ccc(C(F)(F)F)cc4)[C@H]3O)[C@](C)(O)C[C@@H](C)CN[C@H](C)[C@@H](O)[C@](C)(O)[C@@H](CC)OC(=O)[C@@H]2C)C[C@@]1(C)OC [Example B-50, (2R,3S,4R,5R,8R,10R,11R,12S,13S, 14R)-2-ethyl-3,4,10-trihydroxy-13-[(2R,4R,5S,6S)-5-hydroxy-4-methoxy-4,6-dimethyl-5-(propylaminomethyl)oxan-2-yl]oxy-11-[(2S,3R,4S,6R)-3-hydroxy-6-methyl-4-[methyl-[[4-(trifluoromethyl)phenyl]sulfamoyl]amino]oxan-2-yl]oxy-3,5,8, 10, 12, 14-hexamethyl-15-oxo-1-oxa-6-azacyclopentadecane] | > 64 | > 64 | > 64 | > 64 | > 64 | 88 | –
CC[C@H]1OC(=O)[C@H](C)[C@@H](O)[C@H](C)[C@@H](O[C@@H]2O[C@H](C)C[C@H](N(C)S(=O)(=O)c3ccccc3)[C@H]2Oc2ccc(OC)cc2)[C@](C)(O)C[C@@H](C)CN[C@H](C)[C@@H](O)[C@]1(C)O [Example A-9, N-((2S,3R,4S,6R)-2-(((2R,3S,4R,5R,8R,10R,11R,12S,13S,14R)-2-ethyl-3,4,10,13-tetrahydroxy-3,5,8,10, 12, 14-hexamethyl-15-oxo-1-oxa-6-azacyclopentadecan-11-yl)oxy)-3-(4-methoxyphenoxy)-6-methyltetrahydro-2H-pyran-4-yl)-N-methylbenzenesulfonamide] | > 64 | > 64 | > 64 | > 64 | > 64 | 41 | –
CC[C@H]1OC(=O)[C@H](C)[C@@H](O[C@H]2C[C@@](C)(OC)[C@](O)(CN3CCCCC3)[C@H](C)O2)[C@H](C)[C@@H](O[C@@H]2O[C@H](C)C[C@H](N(C)S(=O)(=O)c3ccc(Cl)cc3)[C@H]2O)[C@](C)(O)C[C@@H](C)CN[C@H](C)[C@@H](O)[C@]1(C)O [Example C-4, 4-chloro-N-((2S,3R,4S,6R)-2-(((2R,3S,4R,5R,8R,10R,11R,12S,13S,14R)-2-ethyl-3,4,10-trihydroxy-13-(((2R,4R,5S,6S)-5-hydroxy-4-methoxy-4,6-dimethyl-5-(piperidin-1-ylmethyl)tetrahydro-2H-pyran-2-yl)oxy)-3,5,8, 10, 12, 14-hexamethyl-15-oxo-1-oxa-6-azacyclopentadecan-11-yl)oxy)-3-hydroxy-6-methyltetrahydro-2H-pyran-4-yl)-N-methylbenzenesulfonamide] | > 128 | > 128 | > 128 | > 128 | > 128 | 76 | –
CCCNC[C@]1(O)[C@H](C)O[C@@H](O[C@H]2[C@H](C)[C@@H](O[C@@H]3O[C@H](C)C[C@H](NC)[C@H]3O)[C@](C)(O)C[C@@H](C)CN[C@H](C)[C@@H](O)[C@](C)(O)[C@@H](CC)OC(=O)[C@@H]2C)C[C@@]1(C)OC [Example M9, (2R,3S,4R,5R,8R,10R,11R,12S,13S,14R)-2-ethyl-3,4, 10-trihydroxy-13-(((2R,4R,5S,6S)-5-hydroxy-4-methoxy-4,6-dimethyl-5-((propylamino)methyl)-tetrahydro-2H-pyran-2-yl)oxy)-11-(((2S,3R,4S,6R)-3-hydroxy-6-methyl-4-(methylamino)tetrahydro-2H-pyran-2-yl)oxy)-3,5,8,10,12,14-hexamethyl-1-oxa-6-azacyclopentadecan-15-one] | 22 (≈ 27.8 µM) | – | – | > 64 | 64 (≈ 80.8 µM) | – | 90-100%
